Molecules are shown by their SMILES. pKi: −log10 of the molar value.

The test concerns the target Thymidylate kinase (Homo sapiens) (UniProt P23919). In words: In Vitro inhibition of […] (TMPKh).
Broadly, the pKi is the negative decadic logarithm of the Ki, by convention in mol/L. Read a low pKi as a high Ki. As for `Cc1cn([C@H]2C[C@H](CO)[C@@H](CO)O2)c(=O)[nH]c1=O` [1-(4,5-Bis-hydroxymethyl-tetrahydro-furan-2-yl)-5-methyl-1H-pyrimidine-2,4-dione], the pKi was 3.38.

`Cc1cn([C@@H]2O[C@H](CO)[C@@H](CN)[C@H]2O)c(=O)[nH]c1=O` [1-(4-Aminomethyl-3-hydroxy-5-hydroxymethyl-tetrahydro-furan-2-yl)-5-methyl-1H-pyrimidine-2,4-dione] showed a pKi of 3.96. Then `Cc1cn([C@H]2C[C@H](CN)[C@@H](CO)O2)c(=O)[nH]c1=O` [1-(4-Aminomethyl-5-hydroxymethyl-tetrahydro-furan-2-yl)-5-methyl-1H-pyrimidine-2,4-dione], with 3.66.

Regarding `Cc1cn([C@H]2C[C@H](CN=[N+]=[N-])[C@@H](CO)O2)c(=O)[nH]c1=O` [1-(4-Azidomethyl-5-hydroxymethyl-tetrahydro-furan-2-yl)-5-methyl-1H-pyrimidine-2,4-dione], the negative logarithm of the Ki (pKi) was 2.98. Then `Cc1cn([C@H]2C[C@H](CF)[C@@H](CO)O2)c(=O)[nH]c1=O` [1-(4-Fluoromethyl-5-hydroxymethyl-tetrahydro-furan-2-yl)-5-methyl-1H-pyrimidine-2,4-dione], with 3.01; and `Cc1cn([C@@H]2O[C@H](COP(=O)(O)O)[C@@H](CN)[C@H]2O)c(=O)[nH]c1=O` [Phosphoric acid mono-[3-aminomethyl-4-hydroxy-5-(5-methyl-2,4-dioxo-3,4-dihydro-2H-pyrimidin-1-yl)-tetrahydro-furan-2-ylmethyl] ester], with 3.55; and `Cc1cn([C@H]2C[C@H](CN)[C@@H](COP(=O)(O)O)O2)c(=O)[nH]c1=O` [Phosphoric acid mono-[3-aminomethyl-5-(5-methyl-2,4-dioxo-3,4-dihydro-2H-pyrimidin-1-yl)-tetrahydro-furan-2-ylmethyl] ester], with 5.33. Then `Cc1cn([C@H]2C[C@H](CN=[N+]=[N-])[C@@H](COP(=O)(O)O)O2)c(=O)[nH]c1=O` [Phosphoric acid mono-[3-azidomethyl-5-(5-methyl-2,4-dioxo-3,4-dihydro-2H-pyrimidin-1-yl)-tetrahydro-furan-2-ylmethyl] ester], with 4.49; and `Cc1cn([C@H]2C[C@H](CF)[C@@H](COP(=O)(O)O)O2)c(=O)[nH]c1=O` [Phosphoric acid mono-[3-fluoromethyl-5-(5-methyl-2,4-dioxo-3,4-dihydro-2H-pyrimidin-1-yl)-tetrahydro-furan-2-ylmethyl] ester], with 4.40.

`Cc1cn([C@H]2C[C@H](CO)[C@@H](COP(=O)(O)O)O2)c(=O)[nH]c1=O` [Phosphoric acid mono-[3-hydroxymethyl-5-(5-methyl-2,4-dioxo-3,4-dihydro-2H-pyrimidin-1-yl)-tetrahydro-furan-2-ylmethyl] ester]: the negative logarithm of the Ki (pKi) was 4.36.

These data come from BindingDB's records for doi:10.1021/jm021108n (Ghent University, 2003).
